# PubChem BioAssay (NCI)
#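 1) Cells in 96-well plates. 2) Compound, 48 h, 5 concentrations. 3) Linear interpolation between surrounding doses. 4) Unreached endpoint = highest concentration. The concentration for full growth arrest is given as TGI.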
# Tests used:
# Experiment in all cases: growth of human tumour cells (NCI), 48 h
# HCC-2998 colon = system: HCC-2998 colon
# SF-268 CNS = system: SF-268 CNS
# NCI-H460 lung = system: NCI-H460 lung
# COLO 205 colon = system: COLO 205 colon
# M14 melanoma = system: M14 melanoma
# SK-MEL-5 melanoma = system: SK-MEL-5 melanoma
# EKVX NSCLC = system: EKVX NSCLC
# HOP-92 NSCLC = system: HOP-92 NSCLC
# K-562 leukemia = system: K-562 leukemia
# RPMI-8226 leukemia = system: RPMI-8226 leukemia
# RXF 393 renal = system: RXF 393 renal
# OVCAR-4 ovarian = system: OVCAR-4 ovarian
# SF-295 CNS = system: SF-295 CNS
# BT-549 breast = system: BT-549 breast
# HCT-15 colon = system: HCT-15 colon
# OVCAR-3 ovarian = system: OVCAR-3 ovarian
# HL-60(TB) leukemia = system: HL-60(TB) leukemia
# DU-145 prostate = system: DU-145 prostate
# HS 578T breast = system: HS 578T breast
Structure (SMILES),TGI (HCC-2998 colon),TGI (SF-268 CNS),TGI (NCI-H460 lung),TGI (COLO 205 colon),TGI (M14 melanoma),TGI (SK-MEL-5 melanoma),TGI (EKVX NSCLC),TGI (HOP-92 NSCLC),TGI (K-562 leukemia),TGI (RPMI-8226 leukemia),TGI (RXF 393 renal),TGI (OVCAR-4 ovarian),TGI (SF-295 CNS),TGI (BT-549 breast),TGI (HCT-15 colon),TGI (OVCAR-3 ovarian),TGI (HL-60(TB) leukemia),TGI (DU-145 prostate),TGI (HS 578T breast)
CN1Cc2cc3cc4c(cc3nc2N(C)C1)OCCO4,> 100 µM,> 100 µM,> 100 µM,> 100 µM,> 100 µM,> 100 µM,> 100 µM,> 100 µM,> 100 µM,> 100 µM,> 100 µM,> 100 µM,> 100 µM,> 100 µM,> 100 µM,,,,
O=S1(=O)OCCOS(=O)(=O)C1S(=O)(=O)c1ccc2ccccc2c1,> 100 µM,,> 100 µM,> 100 µM,> 100 µM,> 100 µM,> 100 µM,> 100 µM,> 100 µM,> 100 µM,,> 100 µM,> 100 µM,> 100 µM,> 100 µM,> 100 µM,> 100 µM,> 100 µM,
O=C1/C(=c2\s/c(=C\c3ccccc3)c(=O)n2-c2ccccc2)SC(=S)N1c1ccccc1,> 100 µM,> 100 µM,> 100 µM,> 100 µM,> 100 µM,> 100 µM,> 100 µM,> 100 µM,> 100 µM,> 100 µM,> 100 µM,> 100 µM,> 100 µM,,> 100 µM,88.8 µM,> 100 µM,> 100 µM,> 100 µM
N=C(N)C1CN(CCCCCCCCCCN2CC(C(=N)N)C(=O)NC2=O)C(=O)NC1=O (configuration not stated),> 10 µM,,> 10 µM,> 10 µM,> 10 µM,> 10 µM,> 10 µM,> 10 µM,> 10 µM,> 10 µM,> 10 µM,> 10 µM,> 10 µM,> 10 µM,> 10 µM,> 10 µM,> 10 µM,,> 10 µM
CCCCCC(C/C=N/N(C)C)C(O)(C(F)(F)F)C(F)(F)F (configuration not stated),> 100 µM,> 100 µM,> 100 µM,30.5 µM,> 100 µM,30.7 µM,> 100 µM,78.2 µM,> 100 µM,60.4 µM,76.3 µM,> 100 µM,> 100 µM,,> 100 µM,66.1 µM,31.6 µM,> 100 µM,91.8 µM
CC1=NN(c2cccc(Cl)c2)C(=N/c2nc3ccccc3s2)/C1=C\c1ccc(Cl)cc1,31 µM,38.6 µM,34.3 µM,,52.2 µM,32 µM,> 100 µM,36.1 µM,> 100 µM,> 100 µM,42.1 µM,,61.6 µM,,28.9 µM,52.5 µM,54.5 µM,> 100 µM,60 µM
COC(=O)/C=C\COCC1C2CCC(=O)C21 (configuration not stated),> 25 µM,> 25 µM,24.3 µM,> 25 µM,> 25 µM,> 25 µM,> 25 µM,10.6 µM,> 25 µM,> 25 µM,> 25 µM,> 25 µM,> 25 µM,> 25 µM,> 25 µM,> 25 µM,,> 25 µM,
CCOC(=O)c1nnsc1NC(=O)Nc1ccc(Cc2ccc(NC(=O)Nc3snnc3C(=O)OCC)cc2)cc1,> 100 µM,> 100 µM,> 100 µM,> 100 µM,> 100 µM,93 µM,> 100 µM,,> 100 µM,> 100 µM,70.5 µM,> 100 µM,> 100 µM,> 100 µM,> 100 µM,> 100 µM,,> 100 µM,> 100 µM
O=c1ccn2n1Cc1ccccc1C2,> 100 µM,> 100 µM,> 100 µM,> 100 µM,> 100 µM,> 100 µM,> 100 µM,> 100 µM,> 100 µM,> 100 µM,> 100 µM,> 100 µM,> 100 µM,,> 100 µM,> 100 µM,> 100 µM,> 100 µM,> 100 µM
CN(C)c1ccc(/C=C/C(=O)CC(=O)/C=C/c2ccc(N(C)C)cc2)cc1,> 100 µM,> 100 µM,> 100 µM,> 100 µM,> 100 µM,> 100 µM,> 100 µM,,> 100 µM,> 100 µM,> 100 µM,> 100 µM,> 100 µM,,> 100 µM,> 100 µM,> 100 µM,> 100 µM,> 100 µM
CN1C2=C(CC3=C1CC(C)(C)CC3=O)C(=O)CC(C)(C)C2,> 100 µM,> 100 µM,> 100 µM,,> 100 µM,> 100 µM,> 100 µM,> 100 µM,> 100 µM,> 100 µM,,> 100 µM,,> 100 µM,> 100 µM,> 100 µM,> 100 µM,,> 100 µM
Cc1ccc(S(=O)(=O)N2CCC(=O)c3cc(Br)ccc32)cc1,> 54.1 µM,> 94.8 µM,> 55.4 µM,31.3 µM,> 67 µM,21.7 µM,96.3 µM,98.9 µM,> 30.9 µM,76.4 µM,53.6 µM,> 73.9 µM,55.7 µM,> 88.9 µM,> 100 µM,61 µM,,> 100 µM,
COc1c2cc(C(C)(C)C)cc1Cc1cccc(c1OCc1cccc([N+](=O)[O-])c1)Cc1cc(C(C)(C)C)cc(c1OC)Cc1cccc(c1OCc1cccc([N+](=O)[O-])c1)Cc1cc(C(C)(C)C)cc(c1OC)Cc1cccc(c1OCc1cccc([N+](=O)[O-])c1)C2,> 50 µM,> 50 µM,> 50 µM,> 50 µM,> 50 µM,> 50 µM,> 50 µM,> 50 µM,> 50 µM,> 50 µM,> 50 µM,,> 50 µM,> 50 µM,> 50 µM,> 50 µM,> 50 µM,> 50 µM,
CCN(C(=O)N[C@@H](Cc1ccccc1)C(=O)N[C@@H](CC(C)C)C(=O)OC)c1ccccc1,> 100 µM,,24.9 µM,32.2 µM,21.9 µM,,58.8 µM,59.5 µM,> 100 µM,56.9 µM,37.7 µM,> 100 µM,84.3 µM,> 100 µM,34.5 µM,72 µM,,31.7 µM,
NC(=O)Nc1ccc(S(=O)(=O)Nc2ccc(S(N)(=O)=O)cc2)cc1,,2.59 µM,> 100 µM,> 100 µM,> 100 µM,> 100 µM,> 100 µM,> 100 µM,> 100 µM,> 100 µM,> 100 µM,> 100 µM,> 100 µM,> 100 µM,> 100 µM,> 100 µM,,> 100 µM,
OC1c2ccccc2CC12Cc1ccccc1C2 (configuration not stated),> 100 µM,> 100 µM,> 100 µM,> 100 µM,> 100 µM,49.6 µM,> 100 µM,> 100 µM,> 100 µM,> 100 µM,> 100 µM,> 100 µM,> 100 µM,,> 100 µM,> 100 µM,> 100 µM,> 100 µM,> 100 µM
CC(=O)C1(Cc2cccc3ccccc23)S(=O)(=O)OCCOS1(=O)=O,31.6 µM,50.2 µM,34 µM,30.8 µM,56.7 µM,24.6 µM,32.6 µM,48.4 µM,> 100 µM,47.2 µM,26.7 µM,75.9 µM,20.5 µM,30.6 µM,41.6 µM,36.4 µM,41.4 µM,42.2 µM,
O=C(O)c1n[nH][nH]c1=S,> 100 µM,> 100 µM,> 100 µM,> 100 µM,> 100 µM,> 100 µM,> 100 µM,> 100 µM,> 100 µM,> 100 µM,> 100 µM,> 100 µM,> 100 µM,,> 100 µM,> 100 µM,> 100 µM,> 100 µM,> 100 µM
CCc1cc2c(c3c1CCC3=O)CC1(Cc3ccc(C)cc3C1)C2 (configuration not stated),> 100 µM,,,> 100 µM,> 100 µM,76.8 µM,> 100 µM,62.8 µM,> 100 µM,94.8 µM,> 100 µM,98 µM,> 100 µM,,> 100 µM,> 100 µM,41 µM,,86.9 µM
C=C(CCOC)CCC1CCCCC(=C)[C@H]1OC(C)=O (some centres not stated),,> 100 µM,> 100 µM,> 100 µM,> 100 µM,> 100 µM,> 100 µM,> 100 µM,> 100 µM,> 100 µM,,> 100 µM,> 100 µM,,> 100 µM,> 100 µM,> 100 µM,> 100 µM,> 100 µM
O=c1[nH]nc(-c2ccccc2)n1Nc1ccccc1,> 100 µM,> 100 µM,> 100 µM,> 100 µM,> 100 µM,> 100 µM,> 100 µM,> 100 µM,> 100 µM,> 100 µM,> 100 µM,> 100 µM,> 100 µM,,> 100 µM,> 100 µM,> 100 µM,> 100 µM,> 100 µM
